This note sets out measurements from patent US20210395313A1, “PEPTIDE PAC1 ANTAGONISTS” (AMGEN INC., priority 2017, published 2021).

Where a SMILES comes first, the peptide text is derived from it. Bridges are numbered along the chain shown (N, C = ends). Where no end group is shown, it is not given here.

The target in one assay is T1, human PAC1 receptor (Homo sapiens, UniProt P41586).
T1 construct: SHSY-5Y (human neuroblastoma cell line) and RG-2 (rat glioma cell line) cells endogenously express human and rat PAC1 receptors, respectively; endogenous in cells; host or cells: SHSY-5Y human neuroblastoma cells
T1 sequence (P41586 21-468): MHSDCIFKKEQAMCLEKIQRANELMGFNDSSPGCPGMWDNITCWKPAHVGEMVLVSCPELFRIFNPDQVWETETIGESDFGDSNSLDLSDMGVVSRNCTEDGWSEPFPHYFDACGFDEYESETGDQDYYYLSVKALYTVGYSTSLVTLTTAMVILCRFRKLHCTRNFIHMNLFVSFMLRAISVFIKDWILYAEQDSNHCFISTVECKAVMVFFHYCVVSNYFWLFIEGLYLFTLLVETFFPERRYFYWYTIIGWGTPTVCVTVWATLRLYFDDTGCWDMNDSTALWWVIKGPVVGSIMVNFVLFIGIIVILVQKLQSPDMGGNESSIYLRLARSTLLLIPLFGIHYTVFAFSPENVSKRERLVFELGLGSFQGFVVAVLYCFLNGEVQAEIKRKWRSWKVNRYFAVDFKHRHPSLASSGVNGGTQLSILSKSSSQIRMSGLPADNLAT
Description: LANCE Ultra cAMP accumulation antagonist assay in SHSY-5Y cells.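 Further: inhibition of cAMP accumulation evoked by PAC1 agonist at its EC80 in SHSY-5Y cells endogenously expressing receptor, 30 min preincubation then 15 min agonist, TR-FRET readout.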 The format is cell-based.

In the next assay the target is T2, rat PAC1 receptor (Rattus norvegicus, UniProt P32215).
T2 construct: SHSY-5Y (human neuroblastoma cell line) and RG-2 (rat glioma cell line) cells endogenously express human and rat PAC1 receptors, respectively; endogenous in cells; host or cells: RG-2 rat glioma cells
T2 sequence (P32215 20-523): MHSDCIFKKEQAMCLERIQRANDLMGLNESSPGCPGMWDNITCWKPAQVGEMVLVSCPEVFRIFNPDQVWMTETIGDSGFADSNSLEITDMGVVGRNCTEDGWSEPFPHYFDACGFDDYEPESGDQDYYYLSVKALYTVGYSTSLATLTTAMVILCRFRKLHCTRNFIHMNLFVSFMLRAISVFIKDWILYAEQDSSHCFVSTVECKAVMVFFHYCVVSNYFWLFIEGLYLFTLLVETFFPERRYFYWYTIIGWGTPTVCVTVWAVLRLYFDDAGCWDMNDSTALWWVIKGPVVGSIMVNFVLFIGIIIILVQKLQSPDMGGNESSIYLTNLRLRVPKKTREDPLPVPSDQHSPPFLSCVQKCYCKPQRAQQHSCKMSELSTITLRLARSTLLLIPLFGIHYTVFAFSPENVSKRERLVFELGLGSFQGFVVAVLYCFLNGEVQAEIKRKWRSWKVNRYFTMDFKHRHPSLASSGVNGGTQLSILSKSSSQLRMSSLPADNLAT
Put plainly: LANCE Ultra cAMP accumulation antagonist assay in RG-2 cells.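 Further: RG-2 rat glioma cells endogenously expressing PAC1, test peptide preincubated 30 min, then PAC1 agonist added at its EC80 for 15 min, cAMP accumulation read by LANCE Ultra.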 The format is cell-based. Background: In TR-FRET formats the signal depends on donor and acceptor labels being close together.

Broadly, the IC50 is the concentration needed to halve the response being measured. A higher IC50 goes with weaker potency. “CDATCQFRKAIDDCAKQAHHANVPGSVFKACMKQKKKEFKAG-NH2 (disulfide 1-5, 14-31) [compound 13]”: the IC50 at human PAC1 receptor and against rat PAC1 receptor was 0.01 to 1 nM in each case.

As to `CC[C@H](C)[C@H](NC(=O)[C@H](C)NC(=O)[C@H](CCCCN)NC(=O)[C@H](CCCNC(=N)N)NC(=O)[C@H](Cc1ccccc1)NC(=O)[C@H](CCC(N)=O)NC(=O)[C@@H]1CSSC[C@H](N)C(=O)N[C@@H](CC(=O)O)C(=O)N[C@@H](C)C(=O)N[C@@H]([C@@H](C)O)C(=O)N1)C(=O)N[C@@H](CC(=O)O)C(=O)N[C@@H](CC(=O)O)C(=O)N[C@H]1CSSC[C@@H](C(=O)N[C@@H](CCSC)C(=O)N[C@@H](CCCCN)C(=O)N[C@@H](CCC(N)=O)C(=O)N[C@@H](CCCCN)C(=O)N[C@@H](CCCCN)C(=O)N[C@@H](CCCCN)C(=O)N[C@@H](CCC(=O)O)C(=O)N[C@@H](Cc2c[nH]c3ccccc23)C(=O)N[C@@H](CCCCN)C(=O)N[C@@H](C)C(=O)NCC(=O)N[C@@H](Cc2c[nH]cn2)C(=O)O)NC(=O)[C@H](C)NC(=O)[C@H](CCCCN)NC(=O)[C@H](Cc2ccccc2)NC(=O)[C@H](C(C)C)NC(=O)[C@H](CO)NC(=O)[C@H](CO)NC(=O)[C@H](Cc2c[nH]cn2)NC(=O)[C@H](Cc2c[nH]cn2)NC(=O)[C@H](C)NC(=O)[C@H](CCC(N)=O)NC(=O)[C@H](CCCNC(=N)N)NC(=O)[C@H](C(C)C)NC1=O` [compound 75] (H-CDATCQFRKAIDDCVRQAHHSSVFKACMKQKKKEWKAGH-OH; disulfide 1-5, 14-27), the values for the IC50 against human PAC1 receptor and against rat PAC1 receptor were 0.01 to 1 nM and under 0.01 nM, respectively.

As to “CDATCQFRKAIDDCYYRSWHSNVPGSVFKACMKFRFNVWKAG-NH2 (disulfide 1-5, 14-31) [compound 67]”, the concentration for half-maximal inhibition (IC50) at human PAC1 receptor fell in the range of 1 to 100 nM; against rat PAC1 receptor, 0.01 to 1 nM.

Consider `CC[C@H](C)[C@H](NC(=O)[C@H](C)NC(=O)[C@H](CCCCN)NC(=O)[C@H](CCCNC(=N)N)NC(=O)[C@H](Cc1ccccc1)NC(=O)[C@H](CCC(N)=O)NC(=O)[C@@H]1CSSC[C@H](N)C(=O)N[C@@H](CC(=O)O)C(=O)N[C@@H](C)C(=O)N[C@@H]([C@@H](C)O)C(=O)N1)C(=O)N[C@@H](CC(=O)O)C(=O)N[C@@H](CC(=O)O)C(=O)N[C@H]1CSSC[C@@H](C(=O)N[C@@H](CCSC)C(=O)N[C@@H](CCCCN)C(=O)N[C@@H](CCC(N)=O)C(=O)N[C@@H](CCCCN)C(=O)N[C@@H](CCCCN)C(=O)N[C@@H](CCCCN)C(=O)N[C@@H](CCC(=O)O)C(=O)N[C@@H](Cc2ccccc2)C(=O)N[C@@H](CCCCN)C(N)=O)NC(=O)[C@H](CCC(=O)O)NC(=O)[C@H](CCCCN)NC(=O)[C@H](Cc2ccccc2)NC(=O)[C@H](CO)NC(=O)[C@H](CC(N)=O)NC(=O)[C@H](CO)NC(=O)[C@H](Cc2c[nH]cn2)NC(=O)[C@H](Cc2c[nH]cn2)NC(=O)[C@H](C)NC(=O)[C@H](CCC(N)=O)NC(=O)[C@H](CCCCN)NC(=O)[C@H](CC(=O)O)NC1=O` [compound 222], for which the IC50 was under 0.01 nM against human PAC1 receptor and 1 to 100 nM at rat PAC1 receptor.

Turning to “CDATCQFRKAIDDCARQAHHSNVPGSVFKACSKQKKKEWKAGH (disulfide 1-5, 14-31) [compound 40]”, the IC50 on human PAC1 receptor and against rat PAC1 receptor was 1 to 100 nM throughout.

On to “CDATCQFRKAIDDCQKQAHHSNVPGSVFKACVKQKKKEFKAG-NH2 (disulfide 1-5, 14-31) [compound 142]”, for which the half-maximal inhibitory concentration (IC50) against human PAC1 receptor and at rat PAC1 receptor was 1 to 100 nM each time.

With “CDATCQFRKAIDDCYYRSWHSNVPGSVFKACMKQKKKEFKAG (disulfide 1-5, 14-31) [compound 64]”, the IC50 at human PAC1 receptor lay in the range of 1 to 100 nM; against rat PAC1 receptor, 0.01 to 1 nM.

“CDATCQFRKAIDDCAHRAWHSNVPGSVFKLCMKQKKKEWKAGH-NH2 (disulfide 1-5, 14-31) [compound 424]”: the IC50 against human PAC1 receptor and at rat PAC1 receptor was 0.01 to 1 nM each time.

Turning to “CDATCQFRKAIDDCYWIAMHSNVPGSVWKACMKQKKKEFKAG-NH2 (disulfide 1-5, 14-31) [compound 147]”, the IC50 on human PAC1 receptor and against rat PAC1 receptor was 0.01 to 1 nM each time.

In the case of “CDATCQFRKAIDDCAKQAHHSNVPGSVFKACMKQKKKEFKAGH (disulfide 1-5, 14-31) [compound 57]”, the IC50 against human PAC1 receptor and at rat PAC1 receptor was 0.01 to 1 nM throughout.

Turning to “CDATCQFRKAIDDCWMLSWHANVPGSVFKACMKQKKKEFKAG-NH2 (disulfide 1-5, 14-31) [compound 92]”, the half-maximal inhibitory concentration (IC50) on human PAC1 receptor and against rat PAC1 receptor was 0.01 to 1 nM in each case.

With “CDATCQFRKAIDDCDRQAHHSNVPGSVFKACMKQKKKEFKAG-NH2 (disulfide 1-5, 14-31) [compound 168]”, the IC50 against human PAC1 receptor and at rat PAC1 receptor was 0.01 to 1 nM throughout.

As to “CDATCQFRKAIDDCVRQAHHSNVPGSVFKACMKQKKKEWKAN (disulfide 1-5, 14-31) [compound 87]”, the IC50 at human PAC1 receptor and against rat PAC1 receptor was 0.01 to 1 nM throughout.

With “CDATCQFRKAIDDCDRQAHHSNVPGSVFKACMKQKKKEFKAGH (disulfide 1-5, 14-31) [compound 155]”, the figures for the IC50 at human PAC1 receptor and at rat PAC1 receptor were 1 to 100 nM and 0.01 to 1 nM, respectively.

On to “CDATCQYRKGLVACLYKKVAMQKRYSVFKACMKQKKKEFKAG-NH2 (disulfide 1-5, 14-31) [compound 46]”, for which the IC50 against human PAC1 receptor is 1 to 100 nM; at rat PAC1 receptor, 0.01 to 1 nM.

For `CC[C@H](C)[C@H](NC(=O)[C@H](C)NC(=O)[C@H](CCCCN)NC(=O)[C@H](CCCNC(=N)N)NC(=O)[C@H](Cc1ccccc1)NC(=O)[C@H](CCC(N)=O)NC(=O)[C@@H]1CSSC[C@H](N)C(=O)N[C@@H](CC(=O)O)C(=O)N[C@@H](C)C(=O)N[C@@H]([C@@H](C)O)C(=O)N1)C(=O)N[C@@H](CC(=O)O)C(=O)N[C@@H](CC(=O)O)C(=O)N[C@H]1CSSC[C@@H](C(=O)N[C@@H](CCSC)C(=O)N[C@@H](CCCCN)C(=O)N[C@@H](CCC(N)=O)C(=O)N[C@@H](CCCCN)C(=O)N[C@@H](CCCCN)C(=O)N[C@@H](CCCCN)C(=O)N[C@@H](CCC(=O)O)C(=O)N[C@@H](Cc2c[nH]c3ccccc23)C(=O)N[C@@H](CCCCN)C(=O)N[C@@H](C)C(=O)NCC(=O)N[C@@H](Cc2c[nH]cn2)C(=O)O)NC(=O)[C@H](C)NC(=O)[C@H](CCCCN)NC(=O)[C@H](Cc2ccccc2)NC(=O)[C@H](C(C)C)NC(=O)[C@H](CO)NC(=O)[C@H](CO)NC(=O)[C@H](Cc2c[nH]cn2)NC(=O)[C@H](Cc2c[nH]c3ccccc23)NC(=O)[C@H](CO)NC(=O)[C@H](CCCNC(=N)N)NC(=O)[C@H](Cc2ccc(O)cc2)NC(=O)[C@H](Cc2ccc(O)cc2)NC1=O` [compound 72] (H-CDATCQFRKAIDDCYYRSWHSSVFKACMKQKKKEWKAGH-OH; disulfide 1-5, 14-27), the half-inhibitory concentration (IC50) against human PAC1 receptor and on rat PAC1 receptor was 0.01 to 1 nM throughout.

In the case of “CDATCQFRKAIDDCQKQAHHSNVPGSVFKACMKQKKKEFKA-NH2 (disulfide 1-5, 14-31) [compound 214]”, the IC50 against human PAC1 receptor fell in the range of 1 to 100 nM; on rat PAC1 receptor, 0.01 to 1 nM.

For the compound “CDATCQFRKAIDDCHLLAWHSNVPGSVFKACMKQKKKEFKAG-NH2 (disulfide 1-5, 14-31) [compound 76]”, the IC50 against human PAC1 receptor and against rat PAC1 receptor was 0.01 to 1 nM throughout.

Take “CDATCQFRKAIDDCVRQAHHSNVPGSVFKACMKQKKKEWKAG (disulfide 1-5, 14-31) [compound 82]”: the IC50 on human PAC1 receptor and against rat PAC1 receptor was 0.01 to 1 nM in each case.

Regarding “CDATCQFRKAIDDCYYYAMHSNVPGSVWKACMKQKKKEFKAG-NH2 (disulfide 1-5, 14-31) [compound 150]”, the IC50 against human PAC1 receptor and on rat PAC1 receptor was 0.01 to 1 nM each time.

“CDATCQFRKAIDDCWMLSWHANVPGSVFKACMKQKKKEFKAGH (disulfide 1-5, 14-31) [compound 111]”: the IC50 against human PAC1 receptor and against rat PAC1 receptor was 0.01 to 1 nM throughout.
